# Measured values: US10597388B2, “Pyridazinone herbicides” (FMC CORPORATION, priority 2014, dated 2020)
# Legend:
# Test in all cases: Test D controlled growth environment herbicide test, pre- and postemergence
# Assay type in all cases: in vivo
# [1] = test system: oilseed rape (Brassica napus)
# Method in brief: (§1)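 Pre-emergence: seeds sown in silt loam soil were sprayed with compound in a non-phytotoxic solvent mix containing surfactant. Post-emergence: plants at 2 to 18 cm (1- to 4-leaf stage) in peat moss/vermiculite medium got the same formulation. Visual 0–100 rating versus controls after 14 to 21 d.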
# [2] = test system: windgrass (Apera spica-venti)
# Method in brief: as §1
# [3] = test system: foxtail, green (green foxtail, Setaria viridis)
# Method in brief: as §1
# [4] = test system: buckwheat, wild (wild buckwheat, Polygonum convolvulus)
# Method in brief: as §1
# [5] = test system: galium (catchweed bedstraw, Galium aparine)
# Method in brief: as §1
# [6] = test system: ryegrass, Italian (Italian ryegrass, Lolium multiflorum)
# Method in brief: as §1
# [7] = test system: deadnettle (henbit deadnettle, Lamium amplexicaule)
# Method in brief: as §1
# [8] = test system: chickweed (common chickweed, Stellaria media)
# Method in brief: as §1
# [9] = test system: field violet (Viola arvensis)
# Method in brief: as §1
# [10] = test system: canarygrass (Phalaris minor)
# Method in brief: as §1
# [11] = test system: bromegrass, downy (downy bromegrass, Bromus tectorum)
# Method in brief: as §1
# [12] = test system: chamomile (scentless chamomile, Matricaria inodora)
# Method in brief: as §1
# [13] = test system: lambsquarters (Chenopodium album)
# Method in brief: as §1
# [14] = test system: wheat, winter (winter wheat, Triticum aestivum)
# Method in brief: as §1
# [15] = Postemergence, 31 g ai/ha, scale 0 to 100 (0 no effect, 100 complete control)
# [16] = Postemergence, 125 g ai/ha, visual rating on scale 0 (no effect) to 100 (complete control), 14 to 21 d
# [17] = Postemergence, 250 g ai/ha, scale 0 to 100 (0 no effect, 100 complete control)
# [18] = Preemergence, 62 g ai/ha, scale 0 to 100 (0 no effect, 100 complete control)
# [19] = Preemergence, 125 g ai/ha, scale 0 to 100 (0 no effect, 100 complete control)
# [20] = Preemergence, 250 g ai/ha, scale 0 to 100, 0 no effect, 100 complete control
# [21] = postemergence, 62 g ai/ha, scale 0 to 100, 0 no effect, 100 complete control
compound,measurement,setting,value
Cc1nn(C)c(=O)c(-c2c(C)sc3ccc(Br)cc23)c1O [Compound 22],Oilseed Rape plant response rating,[1]; [15],30
same,"Plant response rating, Oilseed Rape",[1]; [16],95
same,"Plant response rating, Oilseed Rape",[1]; [17],100
same,"Plant response rating (scale of 0 to 100), Oilseed Rape","[1]; Preemergence, 31 g ai/ha",0
same,"Plant response rating, Oilseed Rape",[1]; [18],0
same,"Plant response rating, Oilseed Rape",[1]; [19],0
same,"Plant response rating, Oilseed Rape",[1]; [20],75
same,"Plant response rating, Oilseed Rape",[1]; [21],30
same,Windgrass plant response rating,[2]; [15],15
same,"Plant response rating, Windgrass",[2]; [16],35
same,"Plant response rating, Windgrass",[2]; [17],55
same,"Plant response rating (scale of 0 to 100), Windgrass","[2]; Preemergence, 31 g ai/ha",0
same,"Plant response rating, Windgrass",[2]; [18],20
same,"Plant response rating, Windgrass",[2]; [19],70
same,"Plant response rating, Windgrass",[2]; [20],80
same,"Plant response rating, Windgrass",[2]; [21],20
same,"Foxtail, Green plant response rating",[3]; [15],15
same,"Plant response rating, Foxtail, Green",[3]; [16],70
same,"Plant response rating, Foxtail, Green",[3]; [17],75
same,"Plant response rating (scale of 0 to 100), Foxtail, Green","[3]; Preemergence, 31 g ai/ha",0
same,"Plant response rating, Foxtail, Green",[3]; [18],0
same,"Plant response rating, Foxtail, Green",[3]; [19],0
same,"Plant response rating, Foxtail, Green",[3]; [20],20
same,"Plant response rating, Foxtail, Green",[3]; [21],45
same,"Buckwheat, Wild plant response rating",[4]; [15],90
same,"Plant response rating, Buckwheat, Wild",[4]; [16],100
same,"Plant response rating, Buckwheat, Wild",[4]; [17],100
same,"Plant response rating (scale of 0 to 100), Buckwheat, Wild","[4]; Preemergence, 31 g ai/ha",20
same,"Plant response rating, Buckwheat, Wild",[4]; [18],20
same,"Plant response rating, Buckwheat, Wild",[4]; [19],85
same,"Plant response rating, Buckwheat, Wild",[4]; [20],95
same,"Plant response rating, Buckwheat, Wild",[4]; [21],98
same,Galium plant response rating,[5]; [15],90
same,"Plant response rating, Galium",[5]; [16],98
same,"Plant response rating, Galium",[5]; [17],98
same,"Plant response rating (scale of 0 to 100), Galium","[5]; Preemergence, 31 g ai/ha",10
same,"Plant response rating, Galium",[5]; [18],65
same,"Plant response rating, Galium",[5]; [19],75
same,"Plant response rating, Galium",[5]; [20],85
same,"Plant response rating, Galium",[5]; [21],90
same,"Ryegrass, Italian plant response rating",[6]; [15],75
same,"Plant response rating, Ryegrass, Italian",[6]; [16],85
same,"Plant response rating, Ryegrass, Italian",[6]; [17],90
same,"Plant response rating (scale of 0 to 100), Ryegrass, Italian","[6]; Preemergence, 31 g ai/ha",85
same,"Plant response rating, Ryegrass, Italian",[6]; [18],90
same,"Plant response rating, Ryegrass, Italian",[6]; [19],100
same,"Plant response rating, Ryegrass, Italian",[6]; [20],100
same,"Plant response rating, Ryegrass, Italian",[6]; [21],80
same,Deadnettle plant response rating,[7]; [15],10
same,"Plant response rating, Deadnettle",[7]; [16],45
same,"Plant response rating, Deadnettle",[7]; [17],70
same,"Plant response rating (scale of 0 to 100), Deadnettle","[7]; Preemergence, 31 g ai/ha",0
same,"Plant response rating, Deadnettle",[7]; [18],0
same,"Plant response rating, Deadnettle",[7]; [19],15
same,"Plant response rating, Deadnettle",[7]; [21],10
same,Chickweed plant response rating,[8]; [15],85
same,"Plant response rating, Chickweed",[8]; [16],98
same,"Plant response rating, Chickweed",[8]; [17],100
same,"Plant response rating (scale of 0 to 100), Chickweed","[8]; Preemergence, 31 g ai/ha",95
same,"Plant response rating, Chickweed",[8]; [18],100
same,"Plant response rating, Chickweed",[8]; [19],100
same,"Plant response rating, Chickweed",[8]; [20],100
same,"Plant response rating, Chickweed",[8]; [21],95
same,Field Violet plant response rating,[9]; [15],70
same,"Plant response rating, Field Violet",[9]; [16],75
same,"Plant response rating, Field Violet",[9]; [17],95
same,"Plant response rating (scale of 0 to 100), Field Violet","[9]; Preemergence, 31 g ai/ha",20
same,"Plant response rating, Field Violet",[9]; [18],65
same,"Plant response rating, Field Violet",[9]; [19],80
same,"Plant response rating, Field Violet",[9]; [20],100
same,"Plant response rating, Field Violet",[9]; [21],70
same,Canarygrass plant response rating,[10]; [15],20
same,"Plant response rating, Canarygrass",[10]; [16],40
same,"Plant response rating, Canarygrass",[10]; [17],65
same,"Plant response rating (scale of 0 to 100), Canarygrass","[10]; Preemergence, 31 g ai/ha",25
same,"Plant response rating, Canarygrass",[10]; [18],35
same,"Plant response rating, Canarygrass",[10]; [19],85
same,"Plant response rating, Canarygrass",[10]; [20],90
same,"Plant response rating, Canarygrass",[10]; [21],35
same,"Bromegrass, Downy plant response rating",[11]; [15],10
same,"Plant response rating, Bromegrass, Downy",[11]; [16],25
same,"Plant response rating, Bromegrass, Downy",[11]; [17],25
same,"Plant response rating (scale of 0 to 100), Bromegrass, Downy","[11]; Preemergence, 31 g ai/ha",0
same,"Plant response rating, Bromegrass, Downy",[11]; [18],5
same,"Plant response rating, Bromegrass, Downy",[11]; [19],25
same,"Plant response rating, Bromegrass, Downy",[11]; [20],80
same,"Plant response rating, Bromegrass, Downy",[11]; [21],10
same,Chamomile plant response rating,[12]; [15],80
same,"Plant response rating, Chamomile",[12]; [16],85
same,"Plant response rating, Chamomile",[12]; [17],100
same,"Plant response rating (scale of 0 to 100), Chamomile","[12]; Preemergence, 31 g ai/ha",95
same,"Plant response rating, Chamomile",[12]; [18],100
same,"Plant response rating, Chamomile",[12]; [19],100
same,"Plant response rating, Chamomile",[12]; [20],100
same,"Plant response rating, Chamomile",[12]; [21],80
same,Lambsquarters plant response rating,[13]; [15],80
same,"Plant response rating, Lambsquarters",[13]; [16],95
same,"Plant response rating, Lambsquarters",[13]; [17],98
same,"Plant response rating (scale of 0 to 100), Lambsquarters","[13]; Preemergence, 31 g ai/ha",100
same,"Plant response rating, Lambsquarters",[13]; [18],100
same,"Plant response rating, Lambsquarters",[13]; [19],100
same,"Plant response rating, Lambsquarters",[13]; [20],100
same,"Plant response rating, Lambsquarters",[13]; [21],85
same,"Wheat, Winter plant response rating",[14]; [15],5
same,"Plant response rating, Wheat, Winter",[14]; [16],15
same,"Plant response rating, Wheat, Winter",[14]; [17],15
same,"Plant response rating (scale of 0 to 100), Wheat, Winter","[14]; Preemergence, 31 g ai/ha",0
same,"Plant response rating, Wheat, Winter",[14]; [18],0
same,"Plant response rating, Wheat, Winter",[14]; [19],0
same,"Plant response rating, Wheat, Winter",[14]; [20],5
same,"Plant response rating, Wheat, Winter",[14]; [21],5
Cc1ccc2ccccc2c1-c1c(O)c(Br)nn(C)c1=O [Compound 23],"Plant response rating, Oilseed Rape",[1]; [16],65
same,"Plant response rating, Oilseed Rape",[1]; [17],85
same,"Plant response rating, Oilseed Rape",[1]; [21],60
same,"Plant response rating, Windgrass",[2]; [16],75
same,"Plant response rating, Windgrass",[2]; [17],85
same,"Plant response rating, Windgrass",[2]; [21],70
same,"Plant response rating, Foxtail, Green",[3]; [16],80
same,"Plant response rating, Foxtail, Green",[3]; [17],90
same,"Plant response rating, Foxtail, Green",[3]; [21],75
same,"Plant response rating, Buckwheat, Wild",[4]; [16],100
same,"Plant response rating, Buckwheat, Wild",[4]; [17],100
same,"Plant response rating, Buckwheat, Wild",[4]; [21],100
same,"Plant response rating, Galium",[5]; [16],100
same,"Plant response rating, Galium",[5]; [17],100
same,"Plant response rating, Galium",[5]; [21],100
same,"Plant response rating, Ryegrass, Italian",[6]; [16],85
same,"Plant response rating, Ryegrass, Italian",[6]; [17],85
same,"Plant response rating, Ryegrass, Italian",[6]; [21],80
same,"Plant response rating, Deadnettle",[7]; [16],75
same,"Plant response rating, Deadnettle",[7]; [17],85
same,"Plant response rating, Deadnettle",[7]; [21],65
same,"Plant response rating, Chickweed",[8]; [16],100
same,"Plant response rating, Chickweed",[8]; [17],100
same,"Plant response rating, Chickweed",[8]; [21],100
same,"Plant response rating, Field Violet",[9]; [16],75
same,"Plant response rating, Field Violet",[9]; [17],75
same,"Plant response rating, Field Violet",[9]; [21],45
same,"Plant response rating, Canarygrass",[10]; [16],85
same,"Plant response rating, Canarygrass",[10]; [17],90
same,"Plant response rating, Canarygrass",[10]; [21],75
same,"Plant response rating, Bromegrass, Downy",[11]; [16],60
same,"Plant response rating, Bromegrass, Downy",[11]; [17],75
same,"Plant response rating, Bromegrass, Downy",[11]; [21],45
same,"Plant response rating, Chamomile",[12]; [16],85
same,"Plant response rating, Chamomile",[12]; [17],100
same,"Plant response rating, Chamomile",[12]; [21],85
same,"Plant response rating, Lambsquarters",[13]; [16],75
same,"Plant response rating, Lambsquarters",[13]; [17],80
same,"Plant response rating, Lambsquarters",[13]; [21],75
same,"Plant response rating, Wheat, Winter",[14]; [16],55
same,"Plant response rating, Wheat, Winter",[14]; [17],70
same,"Plant response rating, Wheat, Winter",[14]; [21],40
